According to ChEMBL document CHEMBL1155201, “Structure-activity studies on seco-pancratistatin analogs: potent inhibitors of human cytochrome P450 3A4” (Bioorg Med Chem Lett, 2009):

The molecules below were run against T1, Cytochrome P450 3A4 (Homo sapiens, UniProt P08684) (assay: Inhibition of human recombinant CYP3A4 assessed as biotransformation of 7-benzyloxyquinoline to 7-hydroxyquinoline measured every 15 mins by fluorescence intensity analysis). Conditions: not given; call rule not given here.
Assay type: ADME

T1 sequence (P08684 whole entry): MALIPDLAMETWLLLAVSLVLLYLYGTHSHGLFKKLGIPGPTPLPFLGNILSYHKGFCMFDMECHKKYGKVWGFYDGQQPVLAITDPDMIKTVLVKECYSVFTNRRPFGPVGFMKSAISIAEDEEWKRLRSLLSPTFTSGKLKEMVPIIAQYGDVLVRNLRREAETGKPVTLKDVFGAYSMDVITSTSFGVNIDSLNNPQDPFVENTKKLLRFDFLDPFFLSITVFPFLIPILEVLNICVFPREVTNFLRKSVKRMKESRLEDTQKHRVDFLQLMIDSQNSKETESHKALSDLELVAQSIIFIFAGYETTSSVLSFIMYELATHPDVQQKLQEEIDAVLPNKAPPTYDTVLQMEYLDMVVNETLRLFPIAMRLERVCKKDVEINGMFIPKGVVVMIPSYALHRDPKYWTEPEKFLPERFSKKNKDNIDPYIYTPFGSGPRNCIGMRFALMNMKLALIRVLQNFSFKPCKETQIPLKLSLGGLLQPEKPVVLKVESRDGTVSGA

| SMILES | Ki [µM] |
| --- | --- |
| COCO[C@@H]([C@@H]1OC(C)(C)O[C@H]1COC(C)=O)[C@@H](CNC(=O)c1ccccc1)c1ccc2c(c1)OCO2 | 1.01 |
| COCO[C@@H]([C@@H]1OC(C)(C)O[C@H]1CO[Si](C)(C)C(C)(C)C)[C@@H](CNC(=O)c1ccccc1)c1ccc2c(c1)OCO2 | 0.03 |
| COCO[C@@H]([C@@H]1OC(C)(C)O[C@H]1COS(=O)(=O)c1ccc(C)cc1)[C@@H](CNC(=O)c1ccccc1)c1ccc2c(c1)OCO2 | 0.07 |
| CC1(C)O[C@@H]([C@H](O)[C@@H](CNC(=O)c2ccccc2)c2ccc3c(c2)OCO3)[C@H](CO[Si](C)(C)C(C)(C)C)O1 | 0.17 |
| COCO[C@@H]([C@@H]1OC(C)(C)O[C@H]1CO)[C@@H](CNC(=O)c1ccccc1)c1ccc2c(c1)OCO2 | 1.55 |
| COCO[C@@H]([C@@H]1OC(C)(C)O[C@H]1CO[Si](C)(C)C(C)(C)C)[C@@H](CNC(=O)OC(C)(C)C)c1ccc2c(c1)OCO2 | 0.32 |
| COCO[C@@H]([C@@H]1OC(C)(C)O[C@H]1CO[Si](c1ccccc1)(c1ccccc1)C(C)(C)C)[C@@H](CNC(=O)c1ccccc1)c1ccc2c(c1)OCO2 | 0.58 |

Each molecule was assayed against T1, Cytochrome P450 3A4 (assay: Inhibition of human recombinant CYP3A4 assessed as biotransformation of 7-benzyloxyquinoline to 7-hydroxyquinoline at 10 uM measured every 15 mins by fluorescence intensity analysis). Conditions: recombinant enzyme, 0.25 h.
Assay type: ADME

| SMILES | inhibition (INH) |
| --- | --- |
| O=C(NC[C@@H](c1ccc2c(c1)OCO2)[C@@H](O)[C@H](O)[C@@H](O)CO)c1ccccc1 | Not Active |
| CC1(C)O[C@@H]([C@H](O)[C@@H](CNC(=O)c2ccccc2)c2ccc3c(c2)OCO3)[C@H](CO)O1 | Not Active |
| CC1(C)O[C@@H]([C@H](OC(=O)c2ccccc2)[C@@H](CN=[N+]=[N-])c2ccc3c(c2)OCO3)[C@H](CO[Si](C)(C)C(C)(C)C)O1 | Not Active |
| COCO[C@@H]([C@@H]1OC(C)(C)O[C@H]1CO[Si](C)(C)C(C)(C)C)[C@@H](CN=[N+]=[N-])c1ccc2c(c1)OCO2 | Not Active |
